One assay has as its target FGFR2 (Homo sapiens (Human), UniProt P21802). As to the kind of experiment: FGFR Enzymatic Assay (FRET peptide phosphorylation), FGFR2. Format: biochemical. The procedure:
(§1) The inhibitor potency of the exemplified compounds was measured in an enzyme assay that measures peptide phosphorylation using FRET measurements to detect product formation. Inhibitors were serially diluted in DMSO and a volume of 0.5 μL was transferred to the wells of a 384-well plate.
(§2) The enzymes were purchased from Millipore or Invitrogen.
(§3) GraphPad prism3 was used to analyze the data.

A further assay has as its target FGFR3 enzyme (Homo sapiens (Human), UniProt P22607). The experiment in a line: FGFR Enzymatic Assay (FRET peptide phosphorylation), FGFR3. In kind it is biochemical. As to conditions: for FGFR1/FGFR3 IC50 ratio / FGFR4/FGFR3 IC50 ratio: FGFR3 selectivity; for IC50: read-out: FGFR3 IC50. The protocol:
as §1, §3

Another assay deals with FGFR4 (Homo sapiens (Human), UniProt P22455). The experiment in a line: FGFR Enzymatic Assay (FRET peptide phosphorylation), FGFR4. In kind it is biochemical. The protocol: as §1, §2, §3
Sequence of FGFR4 (P22455 22-802): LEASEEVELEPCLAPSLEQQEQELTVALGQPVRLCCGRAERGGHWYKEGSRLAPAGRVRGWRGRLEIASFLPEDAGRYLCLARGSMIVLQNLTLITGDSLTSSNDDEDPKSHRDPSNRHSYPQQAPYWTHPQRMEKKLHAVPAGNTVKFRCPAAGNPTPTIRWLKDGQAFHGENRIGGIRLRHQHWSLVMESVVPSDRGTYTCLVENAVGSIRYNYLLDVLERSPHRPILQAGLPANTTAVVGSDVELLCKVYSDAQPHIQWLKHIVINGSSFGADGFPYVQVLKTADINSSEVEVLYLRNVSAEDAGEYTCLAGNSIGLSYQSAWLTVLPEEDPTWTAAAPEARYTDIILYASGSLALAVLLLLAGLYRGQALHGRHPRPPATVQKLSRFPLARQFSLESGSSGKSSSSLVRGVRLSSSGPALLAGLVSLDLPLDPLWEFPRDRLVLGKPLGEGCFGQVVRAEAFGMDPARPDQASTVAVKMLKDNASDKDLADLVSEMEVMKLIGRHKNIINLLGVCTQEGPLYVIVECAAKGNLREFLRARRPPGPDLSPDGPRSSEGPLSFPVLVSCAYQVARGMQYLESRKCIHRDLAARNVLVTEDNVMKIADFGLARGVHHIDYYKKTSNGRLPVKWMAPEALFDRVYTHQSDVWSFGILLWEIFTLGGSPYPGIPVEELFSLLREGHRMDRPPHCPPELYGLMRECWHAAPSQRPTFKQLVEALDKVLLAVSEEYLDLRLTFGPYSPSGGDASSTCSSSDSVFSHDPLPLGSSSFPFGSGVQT
The next assay has as its target FGFR1 (Homo sapiens (Human), UniProt P11362). As to the kind of experiment: FGFR Enzymatic Assay (FRET peptide phosphorylation), FGFR1.
Setting [1] is: FGFR1 IC50 (nM), pre-incubated for 4 hours.
The mark [2] stands for this setting: pre-incubated for 5 to 10 minutes.
Where [3] appears, read: FGFR1 IC50 (nM), pre-incubated for 5 to 10 minutes.
Setting [4] is: read-out: FGFR1 IC50, pre-incubated for 4 hours.

Like-named read-outs stand apart in the source and are kept apart here.

Sequence of FGFR3 enzyme (P22607 23-806): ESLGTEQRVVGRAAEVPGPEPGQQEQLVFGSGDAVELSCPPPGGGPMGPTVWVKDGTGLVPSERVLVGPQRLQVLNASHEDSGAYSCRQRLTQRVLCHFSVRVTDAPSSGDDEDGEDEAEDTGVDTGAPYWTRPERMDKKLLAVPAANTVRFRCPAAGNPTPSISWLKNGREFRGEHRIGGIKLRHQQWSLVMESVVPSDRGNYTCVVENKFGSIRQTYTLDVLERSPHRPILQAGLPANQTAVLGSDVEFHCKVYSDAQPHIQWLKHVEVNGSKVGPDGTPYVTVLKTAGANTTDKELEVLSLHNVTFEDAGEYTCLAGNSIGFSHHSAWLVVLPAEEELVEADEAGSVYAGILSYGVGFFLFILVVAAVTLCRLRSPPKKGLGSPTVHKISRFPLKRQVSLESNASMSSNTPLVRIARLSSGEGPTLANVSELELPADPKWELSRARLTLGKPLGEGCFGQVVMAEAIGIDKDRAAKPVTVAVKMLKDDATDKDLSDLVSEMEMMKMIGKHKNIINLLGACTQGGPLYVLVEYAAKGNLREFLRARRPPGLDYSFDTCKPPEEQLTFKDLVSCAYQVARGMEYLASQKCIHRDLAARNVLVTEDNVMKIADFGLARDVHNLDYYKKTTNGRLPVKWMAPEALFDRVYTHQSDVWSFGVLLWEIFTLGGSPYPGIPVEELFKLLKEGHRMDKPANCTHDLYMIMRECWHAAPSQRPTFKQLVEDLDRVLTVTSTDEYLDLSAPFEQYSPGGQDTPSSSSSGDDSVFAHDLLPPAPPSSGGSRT
Sequence of FGFR2 (P21802 22-821): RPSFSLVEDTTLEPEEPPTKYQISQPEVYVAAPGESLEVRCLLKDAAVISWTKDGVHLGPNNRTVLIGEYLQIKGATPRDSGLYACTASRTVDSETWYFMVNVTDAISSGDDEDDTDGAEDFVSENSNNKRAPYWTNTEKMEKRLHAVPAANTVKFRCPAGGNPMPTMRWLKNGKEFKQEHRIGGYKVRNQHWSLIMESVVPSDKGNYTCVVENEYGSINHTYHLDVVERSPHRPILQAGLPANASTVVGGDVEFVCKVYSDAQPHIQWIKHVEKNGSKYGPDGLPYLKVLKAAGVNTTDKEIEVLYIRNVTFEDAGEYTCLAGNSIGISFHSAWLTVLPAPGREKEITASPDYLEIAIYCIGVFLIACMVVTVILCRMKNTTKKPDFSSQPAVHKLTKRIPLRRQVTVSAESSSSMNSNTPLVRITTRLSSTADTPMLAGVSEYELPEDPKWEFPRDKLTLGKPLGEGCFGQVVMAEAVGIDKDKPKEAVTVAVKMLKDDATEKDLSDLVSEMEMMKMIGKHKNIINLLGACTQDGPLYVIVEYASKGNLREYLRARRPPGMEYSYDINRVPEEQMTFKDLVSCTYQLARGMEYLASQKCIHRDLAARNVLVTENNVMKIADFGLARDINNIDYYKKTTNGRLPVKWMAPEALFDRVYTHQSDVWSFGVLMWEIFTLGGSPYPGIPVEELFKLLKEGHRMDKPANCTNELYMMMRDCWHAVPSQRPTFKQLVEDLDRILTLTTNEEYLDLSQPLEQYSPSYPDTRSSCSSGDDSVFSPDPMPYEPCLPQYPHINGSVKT
Sequence of FGFR1 (P11362 22-822): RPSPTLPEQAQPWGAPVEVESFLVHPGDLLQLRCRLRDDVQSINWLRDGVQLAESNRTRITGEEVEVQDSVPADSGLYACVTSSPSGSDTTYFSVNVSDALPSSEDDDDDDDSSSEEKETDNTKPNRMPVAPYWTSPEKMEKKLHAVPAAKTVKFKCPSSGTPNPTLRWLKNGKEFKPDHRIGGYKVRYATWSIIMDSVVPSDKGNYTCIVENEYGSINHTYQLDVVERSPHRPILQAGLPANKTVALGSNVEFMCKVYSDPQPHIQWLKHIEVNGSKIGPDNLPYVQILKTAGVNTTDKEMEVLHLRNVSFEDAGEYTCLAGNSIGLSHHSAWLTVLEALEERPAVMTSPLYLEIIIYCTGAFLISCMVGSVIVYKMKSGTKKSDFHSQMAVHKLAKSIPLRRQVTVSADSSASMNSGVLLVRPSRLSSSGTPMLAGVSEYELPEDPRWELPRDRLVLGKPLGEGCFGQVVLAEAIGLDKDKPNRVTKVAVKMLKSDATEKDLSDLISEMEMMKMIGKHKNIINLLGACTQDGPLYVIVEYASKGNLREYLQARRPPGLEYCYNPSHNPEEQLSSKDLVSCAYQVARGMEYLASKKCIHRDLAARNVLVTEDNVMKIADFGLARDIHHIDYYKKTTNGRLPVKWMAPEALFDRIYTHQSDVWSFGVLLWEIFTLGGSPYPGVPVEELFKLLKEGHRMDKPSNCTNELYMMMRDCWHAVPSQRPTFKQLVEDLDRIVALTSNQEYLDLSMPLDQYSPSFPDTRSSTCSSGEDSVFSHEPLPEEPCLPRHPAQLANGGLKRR

`COc1cc(OC)c(F)c(N2Cc3cnc(-c4cn(C)nc4C)cc3N(c3ccc4cn[nH]c4c3)C2=O)c1F` [Example 133, 3-(2,6-difluoro-3,5-dimethoxyphenyl)-7-(1,3-dimethyl-1H-pyrazol-4-yl)-1-(1H-indazol-6-yl)-3,4-dihydropyrido[4,3-d]pyrimidin-2(1H)-one]: the 50% inhibitory concentration (IC50) against FGFR2 (pre-incubated for 4 hours) was less than 10 nM; at FGFR3 enzyme (pre-incubated for 4 hours), less than 10 nM; against FGFR4 (pre-incubated for 4 hours), 30 to 200 nM; against FGFR1 (setting [1]), 10 to 30 nM. The “FGFR1/FGFR3 IC50 ratio” value at FGFR3 enzyme (pre-incubated for 4 hours) is reported as more than 3. At FGFR3 enzyme (pre-incubated for 4 hours), the “FGFR4/FGFR3 IC50 ratio” value is given as more than 5.
Regarding `COc1cc(OC)c(F)c(N2Cc3cnc(-c4cn(C)nc4C)cc3N(c3ccc4[nH]ncc4c3)C2=O)c1F` [Example 134, 3-(2,6-difluoro-3,5-dimethoxyphenyl)-7-(1,3-dimethyl-1H-pyrazol-4-yl)-1-(1H-indazol-5-yl)-3,4-dihydropyrido[4,3-d]pyrimidin-2(1H)-one], the IC50 was less than 10 nM at FGFR2 (pre-incubated for 4 hours), less than 10 nM at FGFR3 enzyme (pre-incubated for 4 hours), 30 to 200 nM at FGFR4 (pre-incubated for 4 hours) and 10 to 30 nM against FGFR1 (setting [1]). The “FGFR1/FGFR3 IC50 ratio” value at FGFR3 enzyme (pre-incubated for 4 hours) was more than 3. In addition, the “FGFR4/FGFR3 IC50 ratio” value at FGFR3 enzyme (pre-incubated for 4 hours) was more than 5.
`COc1cc(OC)c(F)c(N2Cc3cnc(-c4ccc(C5(C#N)CCC5)nc4)cc3N(c3ccncn3)C2=O)c1F` [Example 135, 1-(5-(3-(2,6-difluoro-3,5-dimethoxyphenyl)-2-oxo-1-(pyrimidin-4-yl)-1,2,3,4-tetrahydropyrido[4,3-d]pyrimidin-7-yl)pyridin-2-yl)cyclobutanecarbonitrile]: the IC50 was less than 10 nM at FGFR2 (pre-incubated for 4 hours), less than 10 nM on FGFR3 enzyme (pre-incubated for 4 hours), 30 to 200 nM on FGFR4 (pre-incubated for 4 hours) and 30 to 200 nM on FGFR1 (setting [1]). Moreover, the “FGFR1/FGFR3 IC50 ratio” value at FGFR3 enzyme (pre-incubated for 4 hours) is recorded as more than 5. Further, on FGFR3 enzyme (pre-incubated for 4 hours), the “FGFR4/FGFR3 IC50 ratio” value was more than 10.
For `COc1cc(OC)c(F)c(N2Cc3cnc(-c4ccc(C5(C#N)CCC5)nc4)cc3N(C3CCC3)C2=O)c1F` [Example 136, 1-(5-(1-cyclobutyl-3-(2,6-difluoro-3,5-dimethoxyphenyl)-2-oxo-1,2,3,4-tetrahydropyrido[4,3-d]pyrimidin-7-yl)pyridin-2-yl)cyclobutanecarbonitrile], the IC50 against FGFR2 (setting [2]) was in the range of 10 to 30 nM; on FGFR3 enzyme (setting [2]), 10 to 30 nM; against FGFR4 (setting [2]), 30 to 200 nM; against FGFR1 (setting [3]), 30 to 200 nM.
In the case of `COc1cc(OC)c(F)c(N2Cc3cnc(-c4ccc(C5(C#N)CCC5)nc4)cc3N(c3ccccn3)C2=O)c1F` [Example 137, 1-(5-(3-(2,6-difluoro-3,5-dimethoxyphenyl)-2-oxo-1-(pyridin-2-yl)-1,2,3,4-tetrahydropyrido[4,3-d]pyrimidin-7-yl)pyridin-2-yl)cyclobutanecarbonitrile], the IC50 against FGFR2 (setting [2]) fell in the range of 10 to 30 nM; on FGFR3 enzyme (setting [2]) it was 10 to 30 nM; against FGFR4 (setting [2]) it was 30 to 200 nM; at FGFR1 (setting [3]), 30 to 200 nM.
`COc1cc(OC)c(F)c(N2Cc3cnc(-c4ccc(C5(C#N)CCC5)nc4)cc3N(c3cccnc3)C2=O)c1F` [Example 138, 1-(5-(3-(2,6-difluoro-3,5-dimethoxyphenyl)-2-oxo-1-(pyridin-3-yl)-1,2,3,4-tetrahydropyrido[4,3-d]pyrimidin-7-yl)pyridin-2-yl)cyclobutanecarbonitrile]: the IC50 fell in the range of 10 to 30 nM at FGFR2 (setting [2]), 10 to 30 nM at FGFR3 enzyme (setting [2]), 30 to 200 nM on FGFR4 (setting [2]) and 30 to 200 nM at FGFR1 (setting [3]).
`COCCN1C(=O)N(c2c(F)c(OC)cc(OC)c2F)Cc2cnc(-c3ccc(C4(C#N)CCC4)nc3)cc21` [Example 139, 1-(5-(3-(2,6-difluoro-3,5-dimethoxyphenyl)-1-(2-methoxyethyl)-2-oxo-1,2,3,4-tetrahydropyrido[4,3-d]pyrimidin-7-yl)pyridin-2-yl)cyclobutanecarbonitrile]: the IC50 against FGFR2 (setting [2]) is less than 10 nM; on FGFR3 enzyme (setting [2]), less than 10 nM; at FGFR4 (setting [2]), 30 to 200 nM; at FGFR1 (setting [3]), 30 to 200 nM.
Turning to `COc1cc(OC)c(F)c(N2Cc3cnc(-c4ccc(C5(C#N)CCC5)nc4)cc3N(CC3CC3)C2=O)c1F` [Example 140, 1-(5-(1-(cyclopropylmethyl)-3-(2,6-difluoro-3,5-dimethoxyphenyl)-2-oxo-1,2,3,4-tetrahydropyrido[4,3-d]pyrimidin-7-yl)pyridin-2-yl)cyclobutanecarbonitrile], the half-maximal inhibitory concentration (IC50) against FGFR2 (setting [2]) was less than 10 nM; on FGFR3 enzyme (setting [2]), 10 to 30 nM; against FGFR4 (setting [2]), 30 to 200 nM; on FGFR1 (setting [3]), 30 to 200 nM.
For the molecule `COc1cc(OC)c(F)c(N2Cc3cnc(-c4cnn(C5CCN(S(C)(=O)=O)C5)c4)cc3C3(CC3)C2=O)c1F` (centres unmarked) [Example 147, 2′-(2,6-difluoro-3,5-dimethoxyphenyl)-6′-(1-(1-(methylsulfonyl)pyrrolidin-3-yl)-1H-pyrazol-4-yl)-1′H-spiro[cyclopropane-1,4′-[2,7]naphthyridin]-3′(2′H)-one], the IC50 on FGFR2 (pre-incubated for 4 hours) is less than 10 nM; at FGFR3 enzyme (pre-incubated for 4 hours), less than 10 nM; on FGFR4 (pre-incubated for 4 hours), less than 10 nM; on FGFR1 (setting [1]), 10 to 30 nM. Also, at FGFR3 enzyme (pre-incubated for 4 hours), the “FGFR1/FGFR3 IC50 ratio” value is more than 10. In addition, at FGFR3 enzyme (pre-incubated for 4 hours), the “FGFR4/FGFR3 IC50 ratio” value is more than 3.
Consider `COc1cc(OC)c(F)c(N2Cc3cnc(-c4cnn(CCC5CCN(S(C)(=O)=O)CC5)c4)cc3C3(CC3)C2=O)c1F` [Example 148, 2′-(2,6-difluoro-3,5-dimethoxyphenyl)-6′-(1-(2-(1-(methylsulfonyl)piperidin-4-yl)ethyl)-1H-pyrazol-4-yl)-1′H-spiro[cyclopropane-1,4′-[2,7]naphthyridin]-3′(2′H)-one], for which the IC50 against FGFR2 (pre-incubated for 4 hours) was 10 to 30 nM; on FGFR3 enzyme (pre-incubated for 4 hours), less than 10 nM; against FGFR4 (pre-incubated for 4 hours) it was 10 to 30 nM; against FGFR1 (setting [1]), 30 to 200 nM. Besides, the “FGFR1/FGFR3 IC50 ratio” value on FGFR3 enzyme (pre-incubated for 4 hours) is listed as more than 10. For the same molecule, the “FGFR4/FGFR3 IC50 ratio” value on FGFR3 enzyme (pre-incubated for 4 hours) is on record as more than 3.
Consider `COc1cc(OC)c(F)c(N2Cc3cnc(-c4cnn(C5CCN(C(C)=O)C5)c4)cc3C3(CC3)C2=O)c1F` (centres unmarked) [Example 150, 6′-(1-(1-acetylpyrrolidin-3-yl)-1H-pyrazol-4-yl)-2′-(2,6-difluoro-3,5-dimethoxyphenyl)-1′H-spiro[cyclopropane-1,4′-[2,7]naphthyridin]-3′(2′H)-one], for which the half-inhibitory concentration (IC50) on FGFR2 (pre-incubated for 4 hours), at FGFR3 enzyme (pre-incubated for 4 hours), against FGFR4 (pre-incubated for 4 hours) and on FGFR1 (setting [4]) was less than 10 nM in each case. Further, at FGFR3 enzyme (pre-incubated for 4 hours), the “FGFR1/FGFR3 IC50 ratio” value is recorded as more than 5. Besides, the “FGFR4/FGFR3 IC50 ratio” value on FGFR3 enzyme (pre-incubated for 4 hours) is more than 5.
For `COc1cc(OC)c(F)c(N2Cc3cnc(-c4cnn(CCCN5CCOCC5)c4)cc3C3(CC3)C2=O)c1F` [Example 151, 2′-(2,6-difluoro-3,5-dimethoxyphenyl)-6′-(1-(3-morpholinopropyl)-1H-pyrazol-4-yl)-1′H-spiro[cyclopropane-1,4′-[2,7]naphthyridin]-3′(2′H)-one], the IC50 against FGFR2 (pre-incubated for 4 hours), at FGFR3 enzyme (pre-incubated for 4 hours), against FGFR4 (pre-incubated for 4 hours) and at FGFR1 (setting [4]) was less than 10 nM each time. The “FGFR1/FGFR3 IC50 ratio” value on FGFR3 enzyme (pre-incubated for 4 hours) is reported as more than 5. Also, on FGFR3 enzyme (pre-incubated for 4 hours), the “FGFR4/FGFR3 IC50 ratio” value was more than 5.
For `COc1cc(OC)c(F)c(N2Cc3cnc(-c4cn(CC#N)nc4C)cc3C3(CC3)C2=O)c1F` [Example 153, 2-(4-(2′-(2,6-difluoro-3,5-dimethoxyphenyl)-3′-oxo-2′,3′-dihydro-1′H-spiro[cyclopropane-1,4′-[2,7]naphthyridine]-6′-yl)-3-methyl-1H-pyrazol-1-yl)acetonitrile], the IC50 was 10 to 30 nM on FGFR2 (pre-incubated for 4 hours), less than 10 nM at FGFR3 enzyme (pre-incubated for 4 hours), 10 to 30 nM against FGFR4 (pre-incubated for 4 hours) and 30 to 200 nM on FGFR1 (setting [1]). Besides, at FGFR3 enzyme (pre-incubated for 4 hours), the “FGFR1/FGFR3 IC50 ratio” value is more than 5. For the same molecule, the “FGFR4/FGFR3 IC50 ratio” value at FGFR3 enzyme (pre-incubated for 4 hours) was more than 3.

The values above are taken from patent US9708318B2, “Bicyclic heterocycles as FGFR4 inhibitors” (Incyte Corporation, priority 2015, dated 2017).
